Reference: patent US10100058B2, “Fused heterocyclic compounds as CaM kinase inhibitors” (Gilead Sciences, Inc., priority 2016, dated 2018)

Target: recombinant CaMKIIδ (Homo sapiens (Human), UniProt Q13557)
Assay: CaMKIIδ biochemical assay (HTRF)
Settings: 10 pM CaMKIIδ, 110 nM calmodulin, 12 μM ATP, 1 hour; read-out: CAMKIID-HTRF-384V2 (IC50 - nM)
Method: CaMKIIδ Biochemical Assay
The biochemical activity of recombinant CaMKIIδ was measured by monitoring the phosphorylation of a target peptide using Homogenous Time Resolved Fluorescence (HTRF) technology from CisBio Bioassays.

IC50 [nM] | SMILES
0.21 | CCN(CC)[C@@H](C)CNC(=O)c1cc(NCCN2CC(F)(F)C2)nc(-c2cnn3ccc(-c4cccs4)nc23)c1 [Example 224, (S)—N-(2-(diethylamino)propyl)-2-((2-(3,3-difluoroazetidin-1-yl)ethyl)amino)-6-(5-(thiophen-2-yl)pyrazolo[1,5-a]pyrimidin-3-yl)isonicotinamide]
0.1 | CCN(CC)[C@@H](C)CNC(=O)c1cc(-c2cnn3ccc(-c4cccs4)nc23)nc(N2CC(C)(O)C2)c1 [Example 226, (S)—N-(2-(diethylamino)propyl)-2-(3-hydroxy-3-methylazetidin-1-yl)-6-(5-(thiophen-2-yl)pyrazolo[1,5-a]pyrimidin-3-yl)isonicotinamide]
0.07 | CCN(CC)[C@@H](C)CNC(=O)c1cc(-c2cnn3ccc(-c4cccs4)nc23)nc(N2CC(C)(OC)C2)c1 [Example 227, (S)—N-(2-(diethylamino)propyl)-2-(3-methoxy-3-methylazetidin-1-yl)-6-(5-(thiophen-2-yl)pyrazolo[1,5-a]pyrimidin-3-yl)isonicotinamide]
1.8 | CCN(CC)[C@@H](C)CNC(=O)c1cc(-c2cnn3ccc(-c4cccs4)nc23)nc(N2CC(F)(F)C(F)(F)C2)c1 [Example 230, (S)—N-(2-(diethylamino)propyl)-2-(3,3,4,4-tetrafluoropyrrolidin-1-yl)-6-(5-(thiophen-2-yl)pyrazolo[1,5-a]pyrimidin-3-yl)isonicotinamide]
0.06 | CCN(CC)[C@@H](C)CNC(=O)c1cc(Nc2cn[nH]c2)nc(-c2cnn3ccc(-c4cccs4)nc23)c1 [Example 231, (S)-2-((1H-pyrazol-4-yl)amino)-N-(2-(diethylamino)propyl)-6-(5-(thiophen-2-yl)pyrazolo[1,5-a]pyrimidin-3-yl)isonicotinamide]
0.28 | CCN(CC)[C@@H](C)CNC(=O)c1cc(-c2cnn3ccc(-c4cccs4)nc23)nc(N2CCC(F)(F)C2)c1 [Example 232, (S)—N-(2-(diethylamino)propyl)-2-(3,3-difluoropyrrolidin-1-yl)-6-(5-(thiophen-2-yl)pyrazolo[1,5-a]pyrimidin-3-yl)isonicotinamide]
0.18 | CCN(CC)[C@@H](C)CNC(=O)c1cc(-c2cnn3ccc(-c4cccs4)nc23)nc(N2CCC3(COC3)C2)c1 [Example 233, (S)—N-(2-(diethylamino)propyl)-2-(2-oxa-6-azaspiro[3.4]octan-6-yl)-6-(5-(thiophen-2-yl)pyrazolo[1,5-a]pyrimidin-3-yl)isonicotinamide]
1.28 | CCN(CC)[C@@H](C)CNC(=O)c1cc(-c2cnn3ccc(-c4cccs4)nc23)nc(N2CCC23COC3)c1 [Example 234, (S)—N-(2-(diethylamino)propyl)-2-(6-oxa-1-azaspiro[3.3]heptan-1-yl)-6-(5-(thiophen-2-yl)pyrazolo[1,5-a]pyrimidin-3-yl)isonicotinamide]
1.83 | CCN(CC)[C@@H](C)CNC(=O)c1cc(N[C@H](C)C(N)=O)nc(-c2cnn3ccc(-c4cccs4)nc23)c1 [Example 235, 2-(((R)-1-amino-1-oxopropan-2-yl)amino)-N—((S)-2-(diethylamino)propyl)-6-(5-(thiophen-2-yl)pyrazolo[1,5-a]pyrimidin-3-yl)isonicotinamide]
0.83 | CCN(CC)[C@@H](C)CNC(=O)c1cc(N[C@@H](C)C(N)=O)nc(-c2cnn3ccc(-c4cccs4)nc23)c1 [Example 236, 2-(((S)-1-amino-1-oxopropan-2-yl)amino)-N—((S)-2-(diethylamino)propyl)-6-(5-(thiophen-2-yl)pyrazolo[1,5-a]pyrimidin-3-yl)isonicotinamide]
0.13 | CCN(CC)[C@@H](C)CNC(=O)c1cc(NCc2ncc[nH]2)nc(-c2cnn3ccc(-c4cccs4)nc23)c1 [Example 237, (S)-2-(((1H-imidazol-2-yl)methyl)amino)-N-(2-(diethylamino)propyl)-6-(5-(thiophen-2-yl)pyrazolo[1,5-a]pyrimidin-3-yl)isonicotinamide]
0.28 | CCN(CC)[C@@H](C)CNC(=O)c1cc(NCC(N)=O)nc(-c2cnn3ccc(-c4cccs4)nc23)c1 [Example 238, (S)-2-((2-amino-2-oxoethyl)amino)-N-(2-(diethylamino)propyl)-6-(5-(thiophen-2-yl)pyrazolo[1,5-a]pyrimidin-3-yl)isonicotinamide]
3.66 | CCN(CC)[C@@H](C)CNC(=O)c1cc(N[C@H](C)C(=O)NC)nc(-c2cnn3ccc(-c4cccs4)nc23)c1 [Example 239, N—((S)-2-(diethylamino)propyl)-2-(((R)-1-(methylamino)-1-oxopropan-2-yl)amino)-6-(5-(thiophen-2-yl)pyrazolo[1,5-a]pyrimidin-3-yl)isonicotinamide]
1.07 | CCN(CC)[C@@H](C)CNC(=O)c1cc(N[C@@H](C)C(=O)NC)nc(-c2cnn3ccc(-c4cccs4)nc23)c1 [Example 240, N—((S)-2-(diethylamino)propyl)-2-(((S)-1-(methylamino)-1-oxopropan-2-yl)amino)-6-(5-(thiophen-2-yl)pyrazolo[1,5-a]pyrimidin-3-yl)isonicotinamide]
1.87 | CCN(CC)[C@@H](C)CNC(=O)c1cc(Nc2ncc[nH]2)nc(-c2cnn3ccc(-c4cccs4)nc23)c1 [Example 241, (S)-2-((1H-imidazol-2-yl)amino)-N-(2-(diethylamino)propyl)-6-(5-(thiophen-2-yl)pyrazolo[1,5-a]pyrimidin-3-yl)isonicotinamide]
0.07 | CCN(CC)[C@@H](C)CNC(=O)c1cc(NCCS(N)(=O)=O)nc(-c2cnn3ccc(-c4cccs4)nc23)c1 [Example 242, (S)—N-(2-(diethylamino)propyl)-2-((2-sulfamoylethyl)amino)-6-(5-(thiophen-2-yl)pyrazolo[1,5-a]pyrimidin-3-yl)isonicotinamide]
0.14 | CCN(CC)[C@@H](C)CNC(=O)c1cc(-c2cnn3ccc(-c4cccs4)nc23)nc(N2C[C@H](O)[C@@H](O)C2)c1 [Example 243, N—((S)-2-(diethylamino)propyl)-2-((3S,4S)-3,4-dihydroxypyrrolidin-1-yl)-6-(5-(thiophen-2-yl)pyrazolo[1,5-a]pyrimidin-3-yl)isonicotinamide]
0.16 | CCN(CC)[C@@H](C)CNC(=O)c1cc(-c2cnn3ccc(-c4cccs4)nc23)nc(N2CC(CO)(CO)C2)c1 [Example 244, (S)-2-(3,3-bis(hydroxymethyl)azetidin-1-yl)-N-(2-(diethylamino)propyl)-6-(5-(thiophen-2-yl)pyrazolo[1,5-a]pyrimidin-3-yl)isonicotinamide]
9.25 | CCN[C@@H](C)CNC(=O)c1cc(-c2cnn3ccc(-c4cccs4)nc23)nc(N2CC(C)(O)C2)c1 [Example 245, (S)—N-(2-(ethylamino)propyl)-2-(3-hydroxy-3-methylazetidin-1-yl)-6-(5-(thiophen-2-yl)pyrazolo[1,5-a]pyrimidin-3-yl)isonicotinamide]
0.17 | CCN(CC)[C@@H](C)CNC(=O)c1cc(NCC(=O)NC)nc(-c2cnn3ccc(-c4cccs4)nc23)c1 [Example 246, (S)—N-(2-(diethylamino)propyl)-2-((2-(methylamino)-2-oxoethyl)amino)-6-(5-(thiophen-2-yl)pyrazolo[1,5-a]pyrimidin-3-yl)isonicotinamide]
0.46 | CCN(CC)[C@@H](C)CNC(=O)c1cc(-c2cnn3ccc(-c4cccs4)nc23)nc(N2CCC(OC)CC2)c1 [Example 247, (S)—N-(2-(diethylamino)propyl)-2-(4-methoxypiperidin-1-yl)-6-(5-(thiophen-2-yl)pyrazolo[1,5-a]pyrimidin-3-yl)isonicotinamide]
0.21 | CCN(CC)[C@@H](C)CNC(=O)c1cc(-c2cnn3ccc(-c4cccs4)nc23)nc(N2CC(C)(N(C)C)C2)c1 [Example 248, (S)—N-(2-(diethylamino)propyl)-2-(3-(dimethylamino)-3-methylazetidin-1-yl)-6-(5-(thiophen-2-yl)pyrazolo[1,5-a]pyrimidin-3-yl)isonicotinamide]
0.2 | CCN(CC)[C@@H](C)CNC(=O)c1cc(-c2cnn3ccc(-c4cccs4)nc23)nc(N2CC3(CCC3(F)F)C2)c1 [Example 249, (S)—N-(2-(diethylamino)propyl)-2-(5,5-difluoro-2-azaspiro[3.3]heptan 2 yl)-6-(5-(thiophen-2-yl)pyrazolo[1,5-a]pyrimidin-3-yl)isonicotinamide]
1.61 | CCN(CC)[C@@H](C)CNC(=O)c1cc(-c2cnn3ccc(-c4cccs4)nc23)nc(N2CCC23CCC3)c1 [Example 250, (S)—N-(2-(diethylamino)propyl)-2-(1-azaspiro[3.3]heptan-1-yl)-6-(5-(thiophen-2-yl)pyrazolo[1,5-a]pyrimidin-3-yl)isonicotinamide]
2.05 | CCN(CC)[C@@H](C)CNC(=O)c1cc(-c2cnn3ccc(-c4cccs4)nc23)nc(N2CCC[C@@H]2C(F)(F)F)c1 [Example 251, N—((S)-2-(diethylamino)propyl)-2-(5-(thiophen-2-yl)pyrazolo[1,5-a]pyrimidin-3-yl)-6-((R)-2-(trifluoromethyl)pyrrolidin-1-yl)isonicotinamide]
1.87 | CCN(CC)[C@@H](C)CNC(=O)c1cc(-c2cnn3ccc(-c4cccs4)nc23)nc(-n2cncn2)c1 [Example 252, (S)—N-(2-(diethylamino)propyl)-2-(5-(thiophen-2-yl)pyrazolo[1,5-a]pyrimidin-3-yl)-6-(1H-1,2,4-triazol-1-yl)isonicotinamide]
0.38 | CCN(CC)[C@@H](C)CNC(=O)c1cc(-c2cnn3ccc(-c4cccs4)nc23)nc(N2C[C@@H]3C[C@H]2CO3)c1 [Example 253, 2-((1S,4S)-2-oxa-5-azabicyclo[2.2.1]heptan-5-yl)-N—((S)-2-(diethylamino)propyl)-6-(5-(thiophen-2-yl)pyrazolo[1,5-a]pyrimidin-3-yl)isonicotinamide]
0.86 | CCN(CC)CCNC(=O)c1cc(-c2cnn3ccc(-c4cccs4)nc23)nc(N2CC(OC)C2)c1 [Example 254, N-(2-(diethylamino)ethyl)-2-(3-methoxyazetidin-1-yl)-6-(5-(thiophen-2-yl)pyrazolo[1,5-a]pyrimidin-3-yl)isonicotinamide]
